# Data taken from BindingDB's records for doi:10.1074/jbc.M110.164293 (Manchester Interdisciplinary Biocentre, 2010).
# How the values were obtained:
# Assay in all cases: Binding Assay
# [1] = biological target: T1, Cytochrome P450 144 (Mycobacterium tuberculosis (strain CDC 1551 / Oshkosh), UniProt P9WPL0)
# T1 sequence (P9WPL0 whole entry): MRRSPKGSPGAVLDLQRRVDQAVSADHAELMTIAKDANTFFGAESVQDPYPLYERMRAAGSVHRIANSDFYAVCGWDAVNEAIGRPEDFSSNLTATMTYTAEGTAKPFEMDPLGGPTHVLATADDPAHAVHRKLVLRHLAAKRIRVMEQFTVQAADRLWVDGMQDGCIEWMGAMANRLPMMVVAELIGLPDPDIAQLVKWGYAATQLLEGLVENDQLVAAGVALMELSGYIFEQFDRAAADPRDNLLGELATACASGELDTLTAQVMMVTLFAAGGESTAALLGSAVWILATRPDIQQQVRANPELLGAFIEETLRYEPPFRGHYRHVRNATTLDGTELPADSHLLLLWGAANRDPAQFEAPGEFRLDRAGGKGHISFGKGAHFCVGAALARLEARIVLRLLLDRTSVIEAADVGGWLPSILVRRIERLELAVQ
# Source text: (§1) Substrate and ligand binding assay using UV- visible absorbance analysis of CYP142 was done on a Cary UV-50 UV-visible scanning spectrophotometer (Varian, UK) using a 1-cm path length quartz cuvette, recording spectra between 250 and 800 nm.
# [2] = biological target: T2, Steroid C26-monooxygenase (Mycobacterium tuberculosis (strain CDC 1551 / Oshkosh), UniProt P9WPL4)
# T2 sequence (P9WPL4 whole entry): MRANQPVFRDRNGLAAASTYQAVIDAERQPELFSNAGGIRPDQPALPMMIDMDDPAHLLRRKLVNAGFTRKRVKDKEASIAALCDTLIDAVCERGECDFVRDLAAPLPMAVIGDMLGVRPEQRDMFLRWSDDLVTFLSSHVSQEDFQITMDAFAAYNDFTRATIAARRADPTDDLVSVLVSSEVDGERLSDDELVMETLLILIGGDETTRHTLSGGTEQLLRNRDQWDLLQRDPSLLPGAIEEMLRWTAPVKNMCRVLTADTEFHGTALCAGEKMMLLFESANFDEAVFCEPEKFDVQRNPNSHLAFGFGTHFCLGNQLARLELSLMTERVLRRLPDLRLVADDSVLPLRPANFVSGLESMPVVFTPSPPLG
# Source text: as §1
# [3] = biological target: T3, Steroid C26-monooxygenase (Mycobacterium tuberculosis (strain CDC 1551 / Oshkosh), UniProt P9WPP0)
# T3 sequence (P9WPP0 whole entry): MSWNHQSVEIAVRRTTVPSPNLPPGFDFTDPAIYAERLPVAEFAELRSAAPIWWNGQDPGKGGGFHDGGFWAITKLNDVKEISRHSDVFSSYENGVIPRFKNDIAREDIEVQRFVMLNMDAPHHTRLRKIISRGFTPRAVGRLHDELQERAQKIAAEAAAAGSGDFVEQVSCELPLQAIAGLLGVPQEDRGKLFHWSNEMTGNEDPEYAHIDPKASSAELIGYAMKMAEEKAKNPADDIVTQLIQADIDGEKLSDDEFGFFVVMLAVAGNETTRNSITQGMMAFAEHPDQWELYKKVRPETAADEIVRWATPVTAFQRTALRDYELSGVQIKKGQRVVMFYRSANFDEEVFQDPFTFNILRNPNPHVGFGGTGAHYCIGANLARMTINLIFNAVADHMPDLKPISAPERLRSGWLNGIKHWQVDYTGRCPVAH
# Source text: as §1
SMILES,Kd [1] [µM],Kd [2] [µM],Kd [3] [µM]
c1ccc(-c2c[nH]cn2)cc1,280,12,216
Clc1ccccc1C(c1ccccc1)(c1ccccc1)n1ccnc1,0.37,3.8,5.3
CC(C)CCC[C@@H](C)[C@H]1CC[C@H]2[C@@H]3CCC4=CC(=O)CC[C@]4(C)[C@H]3CC[C@]12C [4-Cholesten-3-one],,0.36,1.2
"CC(=O)N1CCN(c2ccc(OC[C@H]3CO[C@](Cn4ccnc4)(c4ccc(Cl)cc4Cl)O3)cc2)CC1 [24F2-1,25(OH)D3]",134,21,27.1
"CC(C)CCC[C@@H](C)[C@H]1CC[C@H]2[C@@H]3CC=C4C[C@@H](O)CC[C@]4(C)[C@H]3CC[C@]12C [(1S,2R,5S,10S,11S,14R,15R)-2,15-dimethyl-14-[(2R)-6-methylheptan-2-yl]tetracyclo[8.7.0.0^{2,7}.0^{11,15}]heptadec-7-en-5-ol]",,0.34,0.11
Clc1ccc(CO[C@@H](Cn2ccnc2)c2ccc(Cl)cc2Cl)c(Cl)c1 [Brentan],0.98,4,4.6
Clc1ccc(COC(Cn2ccnc2)c2ccc(Cl)cc2Cl)cc1 (configuration not stated) [ECONAZOLE],0.78,4.6,11.7
OC(Cn1cncn1)(Cn1cncn1)c1ccc(F)cc1F [Fungata],,860,43.1
CCC(C)n1ncn(-c2ccc(N3CCN(c4ccc(OC[C@H]5CO[C@](Cn6cncn6)(c6ccc(Cl)cc6Cl)O5)cc4)CC3)cc2)c1=O (some centres not stated) [Oriconazole],,,30.2
